From PubChem BioAssay (NCI)
Values joined by “and” are separate entries in the source; they are usually repeats but may differ in a detail not shown here. Equal values may be shown once.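 Interpolation was linear, between the two tested concentrations surrounding the appropriate level; five concentrations were tested over 48 hours in 96-well plates. At the GI50, growth is halved. TGI denotes the concentration required for complete inhibition of growth.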

Experiments:
Experiment in all cases: DTP human tumour cell line panel, 48 h
OVCAR-5 ovarian = test system: OVCAR-5 ovarian
COLO 205 colon = test system: COLO 205 colon
TK-10 renal = test system: TK-10 renal
SK-MEL-28 melanoma = test system: SK-MEL-28 melanoma
SK-MEL-2 melanoma = test system: SK-MEL-2 melanoma
KM12 colon = test system: KM12 colon
UO-31 renal = test system: UO-31 renal
EKVX NSCLC = test system: EKVX NSCLC
IGROV1 ovarian = test system: IGROV1 ovarian
RXF 393 renal = test system: RXF 393 renal

Compound | TGI (OVCAR-5 ovarian) | TGI (COLO 205 colon) | TGI (TK-10 renal) | TGI (SK-MEL-28 melanoma) | TGI (SK-MEL-2 melanoma) | TGI (KM12 colon) | TGI (UO-31 renal) | TGI (EKVX NSCLC) | TGI (IGROV1 ovarian) | GI50 (OVCAR-5 ovarian) | GI50 (COLO 205 colon) | GI50 (RXF 393 renal) | TGI (RXF 393 renal) | GI50 (TK-10 renal) | GI50 (SK-MEL-28 melanoma) | GI50 (SK-MEL-2 melanoma) | GI50 (KM12 colon) | GI50 (UO-31 renal) | GI50 (IGROV1 ovarian) | GI50 (EKVX NSCLC)
CC(C)OP(=O)(NC(=S)c1ccccc1)OC(C)C | > 100 µM | > 100 µM | > 100 µM | > 100 µM | > 100 µM | > 100 µM | > 100 µM | > 100 µM | > 100 µM | – | – | – | – | – | – | – | – | – | – | –
CN(C)c1ccc(/C=C/c2cc[n+](C)c(/C=C/c3ccc(N(C)C)cc3)c2)cc1 | 14.2 µM | 0.356 µM | 2.86 µM | 2.7 µM | 0.713 µM | 1.42 µM | 11.9 µM | – | 3.43 µM | 0.401 µM | 0.176 µM | 0.389 µM | 1.91 µM | 0.374 µM | 0.667 µM | 0.256 µM | 0.33 µM | 1.81 µM | 0.821 µM | –
O=c1cccccc1[O-].O=c1cccccc1[O-].O=c1cccccc1[O-].[La+3] | > 100 µM | – | 67.9 µM | – | 48 µM | > 100 µM | 65.8 µM | > 100 µM | 75.8 µM | – | – | – | 31.9 µM | – | – | – | – | – | – | –
CC(=O)OCC1OC(n2c(-c3ccc(C)cc3)cc(-c3ccccc3)c(C#N)c2=O)C(OC(C)=O)C(OC(C)=O)C1OC(C)=O (centres undefined) | > 100 µM | > 100 µM | > 100 µM | > 100 µM | > 100 µM | > 100 µM | > 100 µM | > 100 µM | > 100 µM | – | – | – | – | – | – | – | – | – | – | –
CN(C)CCNC(=O)c1ccc(NC(=O)c2nc([N+](=O)[O-])cn2C)cc1 | > 100 µM | > 100 µM | > 100 µM | > 100 µM | > 100 µM | > 100 µM | > 100 µM | – | > 100 µM | – | – | – | > 100 µM | – | – | – | – | – | – | –
S=P(N1CC1)(N1CC1)N1CC1 | – | – | > 95.3 µM and 877 µM and 522 µM | 72.6 µM and 574 µM | – | – | 39.3 µM and 288 µM and 69 µM | – | 77.2 µM and 361 µM and 507 µM | – | – | 18.8 µM | 39.6 µM and 251 µM and 308 µM | 44.5 µM and 127 µM | 34.7 µM | – | 27 µM | 18.2 µM and 28.3 µM | 38.8 µM and 280 µM | –
COC(C)(C)C/C=C/C(C)=C/C=C/C(C)=C\C=C\C(C)=C\C=C\C=C(C)\C=C\C=C(C)\C=C\C=C(C)\C=C\CC(C)(C)OC | > 150 µg/mL | > 150 µg/mL | > 150 µg/mL | > 150 µg/mL | > 150 µg/mL | – | > 150 µg/mL | > 150 µg/mL | > 150 µg/mL | > 150 µg/mL | > 150 µg/mL | > 150 µg/mL | > 150 µg/mL | > 150 µg/mL | > 150 µg/mL | > 150 µg/mL | – | > 150 µg/mL | > 150 µg/mL | > 150 µg/mL
C=CCC1C(=O)CC2(C)CC(=O)C(CC=C)C12C (centres undefined) | > 100 µM | > 100 µM | > 100 µM | > 100 µM | – | > 100 µM | > 100 µM | > 100 µM | > 100 µM | – | – | – | > 100 µM | – | – | – | – | – | – | –
O=c1c(-c2ccccc2)coc2cc(OC/C(=N/O)c3ccccc3)ccc12 | > 100 µM | 72.6 µM | 38.4 µM | > 100 µM | – | 48.3 µM | 76.5 µM | 48.5 µM | > 100 µM | 37 µM | 26.5 µM | – | – | 13.1 µM | 28.8 µM | – | 20.2 µM | 18.6 µM | 17.5 µM | 13.4 µM
Cn1cc(C(=O)C[n+]2ccccc2)c2ccccc21 | – | > 100 µM | > 100 µM | – | > 100 µM | > 100 µM | > 100 µM | 88.3 µM | > 100 µM | – | – | – | – | – | – | – | – | – | – | –
O=C(c1ccccc1)c1cn(/N=C\c2ccccc2)c(=O)nc1-c1ccccc1 | > 100 µM | > 100 µM | > 100 µM | > 100 µM | > 100 µM | > 100 µM | > 100 µM | > 100 µM | – | – | – | – | > 100 µM | – | – | – | – | – | – | –
OCC#Cc1ccccc1C#CCCCCCC#Cc1ccccc1C#CCO | 28.6 µM | 72.2 µM | 76.8 µM | > 100 µM | – | 49.4 µM | 33.8 µM | 42.4 µM | 43.3 µM | 12.8 µM | 22.8 µM | – | – | 27.1 µM | 29 µM | – | 18.8 µM | 17.1 µM | 18.7 µM | 21.3 µM
Cc1cc2c(C)nn(Cc3ccc(Cl)cc3)c2c(C#N)c1C | > 100 µM | > 100 µM | > 100 µM | > 100 µM | > 100 µM | – | > 100 µM | > 100 µM | > 100 µM | – | – | – | > 100 µM | – | – | – | – | – | – | –
COc1ccc(C2ON(c3cccc(C)n3)CC=C2C)cc1 (centres undefined) | > 100 µM | > 100 µM | – | 71.3 µM | 69.4 µM | > 100 µM | > 100 µM | > 100 µM | > 100 µM | – | – | – | 96.5 µM | – | – | – | – | – | – | –
COc1ccccc1NC(=O)CC(=O)N/N=C/c1ccc(N(CCC#N)S(=O)(=O)c2ccccc2)cc1 | > 100 µM | > 100 µM | > 100 µM | > 100 µM | > 100 µM | > 100 µM | > 100 µM | > 100 µM | > 100 µM | – | – | – | – | – | – | – | – | – | – | –
COC(=O)[C@@H](C)C[C@H](Cc1ccccc1)NC(=O)c1csc([C@@H](C[C@H](C(C)C)N(C)C(=O)[C@@H](NC(=O)[C@H]2CCCCN2C)C2CC2)OC(C)=O)n1 | > 16.5 µM | 0.00336 µM and < 0.00165 µM | – | – | – | > 16.5 µM | > 16.5 µM | > 16.5 µM | > 16.5 µM | 0.00384 µM and 0.00604 µM | 0.000369 µM and < 0.00165 µM | – | – | – | 0.000934 µM | 0.000344 µM | 0.000317 µM and 0.00165 µM | 0.00516 µM and 0.00284 µM | 0.00104 µM and 0.00165 µM | 0.0046 µM and 0.00165 µM
CCN(CC)c1ccc(N=Nc2ccc(-c3nc4ccc[n+](C)c4o3)cc2)cc1 | 16.3 µM | 5.41 µM | 24.7 µM | – | 25.5 µM | 24.5 µM | 25.4 µM | 26.7 µM | 30.8 µM | – | – | – | 22.6 µM | – | – | – | – | – | – | –
O=C(O)CCc1nn2c(nc1=O)sc1ccc3ccccc3c12 | – | > 100 µM | > 100 µM | > 100 µM | – | – | > 100 µM | > 100 µM | > 100 µM | – | – | – | > 100 µM | – | – | – | – | – | – | –
N#C/C(=C\c1ccc(Br)cc1)n1nnc2ccc(F)cc21 | 3.99 µM | 4 µM | 5.61 µM | 3.25 µM | 4.98 µM | 4.04 µM | 2.2 µM | – | 2.25 µM | 1.87 µM | 1.54 µM | 0.465 µM | 1.86 µM | 2.26 µM | 1.29 µM | 1.56 µM | 1.3 µM | 1.02 µM | 0.569 µM | –
